The values that follow come from patent publication US20100160623A1, “CYCLODEXTRIN INCLUSION COMPLEXES AND METHODS OF PREPARING SAME” (CARGILL, INCORPORATED, priority 2006, published 2010).

For data set [1] the following is noted: approximate class bounds given as e.g.; cited from earlier work.
The nature of data set [2]: color stability of red 40 in vitamin fortified beverage exposed to light (Examples 39-40). The conditions noted are these: south facing window, exposure to light. In kind it is physicochemical. The text has this:
The mixture is returned to the original container and sealed. The sealed bottle is place in a south facing window for 5-6 weeks or until color changes are noted. Excess beverage is stored refrigerated in glass.

The nature of data set [3]: stabilization of citral to sunlight, off-notes by SPME GC/TOF-MS (Example 40A). In kind it is physicochemical. The source says:
The encapsulated citral products of Example 19 were studied by exposure to summer sun for 7 days as in the above example, but with the goal of monitoring thermal and photo oxidation products using two different concentrations of cyclodextrins. […] The citral complexes were studied at two different concentrations and were designed to deliver a constant citral level when used at 0.1 wt % or 0.2 wt % in acidic beverage base consisting of 10% sucrose and 0.5% citric acid. A 0.1 wt % citral in ethanol was used as a control. 500 ml of each sample was prepared and divided into six (6) four (4) oz samples with no allowed headspace and sealed. Analysis was preformed using SPME and a LECO Pegasus III GC/TOF-MS as previously reported; samples were analyzed in triplicate using a “Latin Square” sampling protocol.

The nature of data set [4]: stabilization of citral in citric acid solution with added uncomplexed cyclodextrin (Example 20). Type of data set: physicochemical. The conditions noted are these: 0.1 or 0.2 wt % cyclodextrin, 40 or 90 degrees F., 18-48 hours. The method, then:
Citral (natural citral, SAP No. 921565, Lot No. 10000223137, available from Citrus & Allied) was cut in ethanol and diluted in citric acid to obtain a desired flavor level (e.g., 3 mL (1% citral in EtOH) per 2 L 0.6% citric acid; designated as “control” or “control freshly made” in Table 2). […] The raw area counts of various forms of citral or character-impact citrus flavor compounds (i.e., neral, geranial, and citral total, the sum of neral and geranial), and a variety of other compounds, including common citrus flavor off-note chemicals (e.g., carveol, p-cymene or p-cymene-8-ol, p,a-dimethyl styrene, mentha-1,5-dien-8-ol 1, and mentha-a,5-dien-8-ol 2) and chlorocyclohexane internal standard (designated as “CCH int std” in Table 2) were measured for each permutation of the experiment, as shown in Table 2. As used herein, the term “raw area counts” is used to refer to the area under the curve of a corresponding portion of a gas chromatogram when the samples are analyzed using a gas chromatography-mass spectrometry analysis, namely, a PEGASUS II Time-of-flight mass spectrometer (TOF-MS; available from LECO Corp., St. Joseph, Mich.). The chlorocyclohexane internal standard was included at 10 ppm per beverage to attempt to normalize the raw area counts of the other compounds of interest.

Entries after “also recorded” stand apart in the source; their conditions may differ. Peptide text beside a SMILES is read from it.

As to `CCc1occc(=O)c1O` [ethyl maltol], in data set [1], the “log(P) value (class of guest)” value is reported as “less than about 1 but greater than zero”.
Take `CSC` [dimethyl sulfide]: the “log(P) value (class of guest)” value in data set [1] was “less than about 1 but greater than zero”.
Take `CC1=C(O)C(=O)C(C)O1` (centres unmarked) [furaneol, 4-hydroxy-2,5-dimethyl-3(2H) furanone]: the “log(P) value (class of guest)” value in data set [1] was “less than about 1 but greater than zero”.
`COc1cc(S(=O)(=O)[O-])c(C)cc1N=Nc1c(O)ccc2cc(S(=O)(=O)[O-])ccc12.[Na+].[Na+]` [red 40 color]: the “color stability (red 40)” value in data set [2] is “degrades upon exposure to light”.
hydroxypropyl-β-cyclodextrin: the figures for the “color stability (red 40)” value in data set [2] and in data set [2] (listed as hydroxyl propyl β-cyclodextrin) were “superior color stability” and “best”, respectively. In addition, in data set [3], the “preventing flavor offnotes, compared with β-cyclodextrin” value is “less effective than β-cyclodextrin in preventing flavor offnotes”.
As for `OC[C@H]1O[C@@H]2O[C@H]3[C@H](O)[C@@H](O)[C@@H](O[C@H]4[C@H](O)[C@@H](O)[C@@H](O[C@H]5[C@H](O)[C@@H](O)[C@@H](O[C@H]6[C@H](O)[C@@H](O)[C@@H](O[C@H]7[C@H](O)[C@@H](O)[C@@H](O[C@H]8[C@H](O)[C@@H](O)[C@@H](O[C@H]1[C@H](O)[C@H]2O)O[C@@H]8CO)O[C@@H]7CO)O[C@@H]6CO)O[C@@H]5CO)O[C@@H]4CO)O[C@@H]3CO` [β-cyclodextrin], in data set [4], the “amount of citral in the solution vs control” value is “increased the amount of citral in the solution” and the “amount of off-notes formed vs control” value is reported as “off-note formation is inhibited; also recorded: decreased the amount of off-notes formed”.
As for `COC(=O)[C@H](Cc1ccccc1)NC(=O)[C@@H](N)CC(=O)O` [aspartame] (H-Asp-Phe-OMe), the “log(P) value (class of guest)” value in data set [1] is on record as “less than about 1 but greater than zero”.
Consider `OC[C@H]1O[C@@H]2O[C@H]3[C@H](O)[C@@H](O)[C@@H](O[C@H]4[C@H](O)[C@@H](O)[C@@H](O[C@H]5[C@H](O)[C@@H](O)[C@@H](O[C@H]6[C@H](O)[C@@H](O)[C@@H](O[C@H]7[C@H](O)[C@@H](O)[C@@H](O[C@H]1[C@H](O)[C@H]2O)O[C@@H]7CO)O[C@@H]6CO)O[C@@H]5CO)O[C@@H]4CO)O[C@@H]3CO` [α-cyclodextrin], for which the “amount of off-notes formed vs control” value in data set [4] is “off-note formation is inhibited”.
